According to US8987312B2, “Alpha-keto heterocycles as FAAH inhibitors” (The Scripps Research Institute, priority 2008, dated 2015):
pIC50, pKi: −log10 of the molar value. Like-named read-outs stand apart in the source and are kept apart here.

How the values were obtained:
Assay type in all cases: biochemical
KIAA1363 = molecular target: T1, KIAA1363 (Mus musculus, UniProt Q8BLF1); assay: Activity based protein profiling (proteome-wide selectivity screening, FP-Rh), KIAA1363; conditions: Table 4; for pIC50: activity based protein profiling; for KIAA1363 selectivity (value in parentheses): ratio KIAA1363 IC50 / FAAH IC50 (fold selectivity for FAAH)
T1 construct: with FP-Rh in brain and heart membrane proteome; from tissue; host or cells: brain and heart membrane proteome
T1 sequence (Q8BLF1 1-408): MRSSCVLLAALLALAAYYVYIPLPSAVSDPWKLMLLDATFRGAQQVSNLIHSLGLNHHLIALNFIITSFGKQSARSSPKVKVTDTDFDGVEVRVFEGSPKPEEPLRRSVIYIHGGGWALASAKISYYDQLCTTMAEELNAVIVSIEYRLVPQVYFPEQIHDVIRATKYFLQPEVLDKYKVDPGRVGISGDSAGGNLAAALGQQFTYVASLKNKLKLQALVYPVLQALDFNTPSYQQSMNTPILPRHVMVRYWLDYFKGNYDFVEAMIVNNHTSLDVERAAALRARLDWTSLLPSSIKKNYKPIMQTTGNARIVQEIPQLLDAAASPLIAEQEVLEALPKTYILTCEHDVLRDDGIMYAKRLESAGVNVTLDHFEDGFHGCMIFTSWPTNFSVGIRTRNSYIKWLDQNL
Excerpt: (§1) Enzyme targets such as FAAH, KIAA1363, and TGH are labeled at the left margin.

[1] = molecular target: T2, purified recombinant rat FAAH (Rattus norvegicus, UniProt P97612); assay: FAAH inhibition enzyme assay (14C-oleamide hydrolysis, Dixon plot), rat enzyme
T2 construct: The truncated rat FAAH (rFAAH) was expressed in E. coli and purified as described; made in house; host or cells: Escherichia coli
T2 sequence (P97612 30-579 limits assumed): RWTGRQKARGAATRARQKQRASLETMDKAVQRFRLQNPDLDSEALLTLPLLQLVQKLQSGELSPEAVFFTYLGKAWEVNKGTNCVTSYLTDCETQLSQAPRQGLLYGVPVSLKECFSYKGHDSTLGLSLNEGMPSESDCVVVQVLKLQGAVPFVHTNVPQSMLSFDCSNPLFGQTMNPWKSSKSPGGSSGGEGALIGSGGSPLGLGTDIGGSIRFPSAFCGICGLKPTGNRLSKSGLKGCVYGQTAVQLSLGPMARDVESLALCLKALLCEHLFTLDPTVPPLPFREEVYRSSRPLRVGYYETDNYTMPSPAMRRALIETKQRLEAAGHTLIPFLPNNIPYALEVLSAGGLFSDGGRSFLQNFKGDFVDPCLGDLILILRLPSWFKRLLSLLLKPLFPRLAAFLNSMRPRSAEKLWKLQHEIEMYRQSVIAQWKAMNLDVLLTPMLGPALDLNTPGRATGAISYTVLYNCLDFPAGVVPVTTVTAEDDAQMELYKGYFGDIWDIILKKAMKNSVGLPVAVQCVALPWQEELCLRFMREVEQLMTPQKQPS
Excerpt: The purified recombinant rFAAH was used in the inhibition assays unless otherwise indicated.
The ^14C-labeled oleamide (substrate) and oleic acid (product) were extracted with EtOAc and analyzed by TLC.

[2] = molecular target: T3, triacylglycerol hydrolase (TGH) (Mus musculus, UniProt Q8VCT4); assay: Activity based protein profiling (proteome-wide selectivity screening, FP-Rh), TGH; conditions: Table 4; for pIC50: activity based protein profiling; for TGH selectivity (value in parentheses): ratio TGH IC50 / FAAH IC50 (fold selectivity for FAAH)
T3 construct: with FP-Rh in brain and heart membrane proteome; from tissue; host or cells: brain and heart membrane proteome
T3 sequence (Q8VCT4 19-565): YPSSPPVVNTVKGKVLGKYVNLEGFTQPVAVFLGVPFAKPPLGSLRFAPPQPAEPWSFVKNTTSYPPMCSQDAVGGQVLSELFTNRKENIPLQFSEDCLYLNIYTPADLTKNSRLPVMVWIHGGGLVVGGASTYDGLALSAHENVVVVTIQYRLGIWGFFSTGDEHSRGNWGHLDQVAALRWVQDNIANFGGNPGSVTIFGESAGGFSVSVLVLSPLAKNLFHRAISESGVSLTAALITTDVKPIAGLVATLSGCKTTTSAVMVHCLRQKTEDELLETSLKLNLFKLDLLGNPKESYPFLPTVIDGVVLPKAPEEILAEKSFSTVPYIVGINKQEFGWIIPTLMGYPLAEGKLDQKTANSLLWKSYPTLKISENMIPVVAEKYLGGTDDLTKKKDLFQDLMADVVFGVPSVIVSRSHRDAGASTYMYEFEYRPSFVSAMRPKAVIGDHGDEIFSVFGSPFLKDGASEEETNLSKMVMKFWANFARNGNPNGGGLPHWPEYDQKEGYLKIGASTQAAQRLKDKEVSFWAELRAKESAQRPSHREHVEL
Excerpt: as §1

FAAH = molecular target: T4, FAAH (Mus musculus, UniProt O08914); assay: Activity based protein profiling (proteome-wide selectivity screening, FP-Rh), FAAH; conditions: Table 4
T4 construct: with FP-Rh in brain and heart membrane proteome; from tissue; host or cells: brain and heart membrane proteome
T4 sequence (O08914 1-579): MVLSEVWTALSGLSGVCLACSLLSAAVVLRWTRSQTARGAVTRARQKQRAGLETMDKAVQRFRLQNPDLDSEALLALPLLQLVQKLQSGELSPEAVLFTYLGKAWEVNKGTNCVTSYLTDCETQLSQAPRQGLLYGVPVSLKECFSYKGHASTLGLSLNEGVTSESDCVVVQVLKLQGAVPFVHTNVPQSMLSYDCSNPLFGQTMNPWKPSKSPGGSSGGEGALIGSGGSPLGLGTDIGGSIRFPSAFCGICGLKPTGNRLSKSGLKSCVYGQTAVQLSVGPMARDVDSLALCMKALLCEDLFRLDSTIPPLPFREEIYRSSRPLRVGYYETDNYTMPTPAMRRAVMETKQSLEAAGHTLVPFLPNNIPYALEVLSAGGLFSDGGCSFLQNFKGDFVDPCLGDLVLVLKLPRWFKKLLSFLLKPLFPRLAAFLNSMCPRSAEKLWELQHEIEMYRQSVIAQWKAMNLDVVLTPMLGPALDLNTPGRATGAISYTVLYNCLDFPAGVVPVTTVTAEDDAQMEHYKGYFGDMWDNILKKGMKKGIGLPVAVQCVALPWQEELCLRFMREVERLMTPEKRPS
Excerpt: as §1

[3] = Table 2, rat FAAH, pH 9 assay conditions, read-out: Ki

Row | Structure (SMILES) | pIC50 (KIAA1363) | KIAA1363 selectivity (value in parentheses) (KIAA1363) | pKi [1, 3] | pKi ([1]; Table 4, read-out: FAAH Ki) | pIC50 [2] | TGH selectivity (value in parentheses) [2] | pIC50 (FAAH) | pKi ([1]; rat FAAH, pH 9, read-out: Ki)
1 | O=C(CCCCCCc1ccccc1)c1ncno1 [9a, 1-(1,2,4-Oxadiazol-5-yl)-7-phenylheptan-1-one] | 4.60 | 6250 | 9.00 | 9.00 | 9.15 | 0.18 | 8.40 | –
2 | O=C(CCCCCCc1ccccc1)c1ncc(-c2ccccc2)o1 [7e] | < 4.00 | – | – | – | 6.15 | – | 6.05 | –
3 | COC(=O)c1cccc(-c2noc(C(=O)CCCCCCc3ccccc3)n2)n1 [9f, Methyl 6-(5-(7-Phenylheptanoyl)-1,2,4-oxadiazol-3-yl)-picolinate] | 4.40 | 13000 | 8.52 | 8.52 | 6.82 | 50 | 8.52 | –
4 | O=C(CCCCCCc1ccccc1)c1ncc(-c2cccs2)o1 [7d] | < 4.00 | > 125 | 7.26 | 7.26 | 6.70 | 0.25 | 6.10 | –
5 | O=C(CCCCCCc1ccccc1)c1ncon1 [10a, 1-(1,2,4-Oxadiazol-3-yl)-7-phenylheptan-1-one] | < 4.00 | > 200 | 8.15 | 8.15 | 8.00 | 0.02 | 6.30 | –
6 | COC(=O)c1nc(C(=O)CCCCCCc2ccccc2)no1 [10h, Methyl 3-(7-Phenylheptanoyl)-1,2,4-oxadiazole-5-carboxylate] | < 4.00 | > 10000 | – | 8.15 | 6.70 | 20 | 8.00 | > 8.00
7 | COC(=O)c1cccc(-c2cnc(C(=O)CCCCCCc3ccccc3)o2)n1 [7f] | 4.40 | – | – | – | 6.00 | – | 6.77 | –

Next, values leading:

Row | pIC50 (KIAA1363) | KIAA1363 selectivity (value in parentheses) (KIAA1363) | pKi [1, 3] | pKi ([1]; Table 4, read-out: FAAH Ki) | pIC50 [2] | TGH selectivity (value in parentheses) [2] | pIC50 (FAAH) | pKi ([1]; rat FAAH, pH 9, read-out: Ki) | Structure (SMILES)
8 | < 4.00 | > 330 | 8.85 | 8.85 | 7.00 | – | 6.52 | – | O=C(CCCCCCc1ccccc1)c1nncs1 [12a, 7-Phenyl-1-(1,3,4-thiadiazol-2-yl)-heptan-1-one]
9 | < 4.00 | > 8 | – | 6.41 | 4.92 | 1 | 4.89 | – | N#Cc1cccc(-c2ccc(C(=O)CCCCCCc3ccccc3)nn2)n1 [13h, 6-(6-(7-Phenylheptanoyl)-pyridazin-3-yl)-picolinonitrile]
10 | < 4.00 | – | 6.30 | 6.30 | 4.40 | < 0.4 | < 4.00 | – | COC(=O)c1cccc(-c2cnc(C(=O)CCCCCCc3ccccc3)s2)n1 [11f, Methyl 6-(2-(7-Phenylheptanoyl)-thiazol-5-yl)-picolinate]
11 | < 4.00 | > 30 | 6.85 | 6.85 | 5.30 | 1 | 5.52 | – | O=C(CCCCCCc1ccccc1)c1cccnn1 [13a, 7-Phenyl-1-(pyridazin-3-yl)-heptan-1-one]
12 | < 4.00 | > 10 | 6.96 | 6.96 | < 4.00 | > 10 | 5.00 | – | COC(=O)c1cccc(-c2ccc(C(=O)CCCCCCc3ccccc3)nn2)n1 [13f, Methyl 6-(6-(7-Phenylheptanoyl)-pyridazin-3-yl)-picolinate]
13 | < 4.00 | – | 6.10 | 6.10 | – | – | < 4.00 | – | O=C(CCCCCCc1ccccc1)c1nccs1 [11a, 7-Phenyl-1-(thiazol-2-yl)-heptan-1-one]
